Measured values reported in patent US20230092001A1, “FURANEOL GLYCOSIDE COMPOUND, PHARMACEUTICAL COMPOSITION THEREOF, PREPARATION METHOD THEREFOR, AND APPLICATION THEREOF” (priority 2019, published 2023).

How the values were obtained:
[1] = system: ulcerative colitis model (dextran sodium sulphate); assay: Effect Example 1: therapeutic effect on ulcerative colitis, dextran sodium sulphate model, injected treatment, 14 days; assay type: in vivo, C57 mice; conditions: for Average colon length of mice / Average colon weight of mice / Unit colon weight of mice (colon weight/colon length): day 14
Description: Thirty 10-week-old male C57 mice, SPF class animal house, temperature 20-26° C., humidity 40%-70%, alternating light-dark periods (12 h/12 h).
(§1) Quarantine-qualified animals with similar weights were selected for the experiment.
Mice in the blank control group were given normal drinking water throughout the experiment. The other 5 groups of mice were given drinking water containing 2% dextran sodium sulphate (DSS) from day 1 to day 5, normal drinking water from day 6 to day 7, drinking water containing 2% dextran sodium sulphate from day 8 to day 12, and normal drinking water from day 13 to day 14. The experiment ended on day 14.
Animals in the blank control group and ulcerative colitis model group were given sterile water intraperitoneally from day 1, once a day; the other 4 groups were administered according to table 1, once a day, until the end of the experiment on day 14. Two hours after the first day of administration, the mice were started to drink water containing dextran sodium sulphate.
(§2) (1) The mice were weighed daily.
(2) Blood samples were collected from the orbital vein on day 14 and stored at −80° C.
(3) On day 14, the mice were sacrificed by cervical vertebra dislocation, the colon was removed and a small amount of fecal was taken from the colon and left as a sample. The colon length and colon weight were measured. A portion of the colon and the fecal sample was stored at −80° C.

[2] = system: ulcerative colitis model (dextran sodium sulphate); assay: Effect Example 3: therapeutic effect on ulcerative colitis, dextran sodium sulphate model, oral gavage, 7 days; assay type: in vivo, C57 mice; conditions: 40 mg/kg oral gavage
Description: Fifty 10-week-old male C57 mice, SPF class animal house, temperature 20-26° C., humidity 40%-70%, alternating light-dark periods (12 h/12 h).
as §1
Mice in the blank control group were given normal drinking water throughout the experiment. The other 9 groups of mice were given drinking water containing 2% dextran sodium sulphate from day 1 to day 7. All groups were administered by oral gavage once a day according to table 10, until the end of the experiment.
as §2
(2) Blood samples were collected from the orbital vein on day 7 and stored at −80° C.
(3) On day 7, the mice were sacrificed by cervical vertebra dislocation, the colon was removed and a small amount of fecal was taken from the colon and left as a sample. The colon length and colon weight were measured. A portion of the colon and the fecal sample was stored at −80° C.

[3] = Day 1, high-dose treatment group 40 mg/kg intraperitoneal injection
[4] = Day 1, low-dose treatment group 10 mg/kg intraperitoneal injection
[5] = Day 1, middle-dose treatment group 20 mg/kg intraperitoneal injection
[6] = Day 2, high-dose treatment group 40 mg/kg intraperitoneal injection
[7] = Day 2, low-dose treatment group 10 mg/kg intraperitoneal injection
[8] = Day 2, middle-dose treatment group 20 mg/kg intraperitoneal injection
[9] = Day 3, high-dose treatment group 40 mg/kg intraperitoneal injection
[10] = Day 3, low-dose treatment group 10 mg/kg intraperitoneal injection
[11] = Day 3, middle-dose treatment group 20 mg/kg intraperitoneal injection
[12] = Day 4, high-dose treatment group 40 mg/kg intraperitoneal injection
[13] = Day 4, low-dose treatment group 10 mg/kg intraperitoneal injection
[14] = Day 4, middle-dose treatment group 20 mg/kg intraperitoneal injection
[15] = Day 5, high-dose treatment group 40 mg/kg intraperitoneal injection
[16] = Day 5, low-dose treatment group 10 mg/kg intraperitoneal injection
[17] = Day 5, middle-dose treatment group 20 mg/kg intraperitoneal injection
[18] = Day 6, high-dose treatment group 40 mg/kg intraperitoneal injection
[19] = Day 6, low-dose treatment group 10 mg/kg intraperitoneal injection
[20] = Day 6, middle-dose treatment group 20 mg/kg intraperitoneal injection
[21] = Day 7, high-dose treatment group 40 mg/kg intraperitoneal injection
[22] = Day 7, low-dose treatment group 10 mg/kg intraperitoneal injection
[23] = Day 7, middle-dose treatment group 20 mg/kg intraperitoneal injection
[24] = Day 8, high-dose treatment group 40 mg/kg intraperitoneal injection
[25] = Day 8, low-dose treatment group 10 mg/kg intraperitoneal injection
[26] = Day 8, middle-dose treatment group 20 mg/kg intraperitoneal injection
[27] = Day 9, high-dose treatment group 40 mg/kg intraperitoneal injection
[28] = Day 9, low-dose treatment group 10 mg/kg intraperitoneal injection
[29] = Day 9, middle-dose treatment group 20 mg/kg intraperitoneal injection
[30] = Day 10, high-dose treatment group 40 mg/kg intraperitoneal injection
[31] = Day 10, low-dose treatment group 10 mg/kg intraperitoneal injection
[32] = Day 10, middle-dose treatment group 20 mg/kg intraperitoneal injection
[33] = Day 11, high-dose treatment group 40 mg/kg intraperitoneal injection
[34] = Day 11, low-dose treatment group 10 mg/kg intraperitoneal injection
[35] = Day 11, middle-dose treatment group 20 mg/kg intraperitoneal injection
[36] = Day 12, high-dose treatment group 40 mg/kg intraperitoneal injection
[37] = Day 12, low-dose treatment group 10 mg/kg intraperitoneal injection
[38] = Day 12, middle-dose treatment group 20 mg/kg intraperitoneal injection
[39] = Day 13, high-dose treatment group 40 mg/kg intraperitoneal injection
[40] = Day 13, low-dose treatment group 10 mg/kg intraperitoneal injection
[41] = Day 13, middle-dose treatment group 20 mg/kg intraperitoneal injection
[42] = Day 14, high-dose treatment group 40 mg/kg intraperitoneal injection
[43] = Day 14, low-dose treatment group 10 mg/kg intraperitoneal injection
[44] = Day 14, middle-dose treatment group 20 mg/kg intraperitoneal injection
[45] = high-dose treatment group 40 mg/kg intraperitoneal injection
[46] = low-dose treatment group 10 mg/kg intraperitoneal injection
[47] = middle-dose treatment group 20 mg/kg intraperitoneal injection
[48] = intraperitoneal injection 10, 20, 40 mg/kg, vs ulcerative colitis model group

SMILES: CC(C)=C1OC(C)=C(O[C@@H]2O[C@H](CO)[C@@H](O)[C@H](O)[C@H]2O)C1=O [Compound I-1, 4-O-β-D-glucosyl-5-methyl-2-(1-methylethylidene)-3(2H)-furanone]
- Average weight of mice [1, 3]: 27.6 g
- Rate of change in weight of mice [1, 3]: 100.0%
- Average weight of mice [1, 4]: 27.9 g
- Rate of change in weight of mice [1, 4]: 100.0%
- Average weight of mice [1, 5]: 27.8 g
- Rate of change in weight of mice [1, 5]: 100.0%
- Average weight of mice [1, 6]: 27.6 g
- Rate of change in weight of mice [1, 6]: 99.9%
- Average weight of mice [1, 7]: 28.1 g
- Rate of change in weight of mice [1, 7]: 100.6%
- Average weight of mice [1, 8]: 27.8 g
- Rate of change in weight of mice [1, 8]: 100.1%
- Average weight of mice [1, 9]: 27.6 g
- Rate of change in weight of mice [1, 9]: 100.0%
- Average weight of mice [1, 10]: 28.0 g
- Rate of change in weight of mice [1, 10]: 100.5%
- Average weight of mice [1, 11]: 27.9 g
- Rate of change in weight of mice [1, 11]: 100.3%
- Average weight of mice [1, 12]: 27.6 g
- Rate of change in weight of mice [1, 12]: 100.0%
- Average weight of mice [1, 13]: 28.0 g
- Rate of change in weight of mice [1, 13]: 100.3%
- Average weight of mice [1, 14]: 27.9 g
- Rate of change in weight of mice [1, 14]: 100.3%
- Average weight of mice [1, 15]: 27.3 g
- Rate of change in weight of mice [1, 15]: 99.1%
- Average weight of mice [1, 16]: 27.2 g
- Rate of change in weight of mice [1, 16]: 97.6%
- Average weight of mice [1, 17]: 27.5 g
- Rate of change in weight of mice [1, 17]: 99.1%
- Average weight of mice [1, 18]: 27.2 g
- Rate of change in weight of mice [1, 18]: 98.7%
- Average weight of mice [1, 19]: 26.3 g
- Rate of change in weight of mice [1, 19]: 94.3%
- Average weight of mice [1, 20]: 27.2 g
- Rate of change in weight of mice [1, 20]: 97.8%
- Average weight of mice [1, 21]: 26.8 g
- Rate of change in weight of mice [1, 21]: 97.0%
- Average weight of mice [1, 22]: 25.9 g
- Rate of change in weight of mice [1, 22]: 93.0%
- Average weight of mice [1, 23]: 26.7 g
- Rate of change in weight of mice [1, 23]: 96.0%
- Average weight of mice [1, 24]: 26.3 g
- Rate of change in weight of mice [1, 24]: 95.3%
- Average weight of mice [1, 25]: 25.6 g
- Rate of change in weight of mice [1, 25]: 91.6%
- Average weight of mice [1, 26]: 26.2 g
- Rate of change in weight of mice [1, 26]: 94.3%
- Average weight of mice [1, 27]: 25.8 g
- Rate of change in weight of mice [1, 27]: 93.5%
- Average weight of mice [1, 28]: 25.3 g
- Rate of change in weight of mice [1, 28]: 90.8%
- Average weight of mice [1, 29]: 25.9 g
- Rate of change in weight of mice [1, 29]: 93.2%
- Average weight of mice [1, 30]: 25.6 g
- Rate of change in weight of mice [1, 30]: 92.7%
- Average weight of mice [1, 31]: 24.9 g
- Rate of change in weight of mice [1, 31]: 89.1%
- Average weight of mice [1, 32]: 25.6 g
- Rate of change in weight of mice [1, 32]: 92.2%
- Average weight of mice [1, 33]: 25.5 g
- Rate of change in weight of mice [1, 33]: 92.2%
- Average weight of mice [1, 34]: 24.4 g
- Rate of change in weight of mice [1, 34]: 87.5%
- Average weight of mice [1, 35]: 25.3 g
- Rate of change in weight of mice [1, 35]: 91.1%
- Average weight of mice [1, 36]: 25.4 g
- Rate of change in weight of mice [1, 36]: 92.0%
- Average weight of mice [1, 37]: 24.1 g
- Rate of change in weight of mice [1, 37]: 86.4%
- Average weight of mice [1, 38]: 25.0 g
- Rate of change in weight of mice [1, 38]: 90.0%
- Average weight of mice [1, 39]: 25.3 g
- Rate of change in weight of mice [1, 39]: 91.5%
- Average weight of mice [1, 40]: 23.8 g
- Rate of change in weight of mice [1, 40]: 85.3%
- Average weight of mice [1, 41]: 24.8 g
- Rate of change in weight of mice [1, 41]: 89.2%
- Average weight of mice [1, 42]: 25.2 g
- Rate of change in weight of mice [1, 42]: 91.4%
- Average weight of mice [1, 43]: 23.7 g
- Rate of change in weight of mice [1, 43]: 84.9%
- Average weight of mice [1, 44]: 24.7 g
- Rate of change in weight of mice [1, 44]: 88.8%
- Average colon length of mice [1, 45]: 6.52 cm
- Average colon weight of mice [1, 45]: 0.2129 g
- Unit colon weight of mice (colon weight/colon length) [1, 45]: 0.0327 g/cm
- Average colon length of mice [1, 46]: 5.46 cm
- Average colon weight of mice [1, 46]: 0.1909 g
- Unit colon weight of mice (colon weight/colon length) [1, 46]: 0.0351 g/cm
- Average colon length of mice [1, 47]: 6.04 cm
- Average colon weight of mice [1, 47]: 0.2115 g
- Unit colon weight of mice (colon weight/colon length) [1, 47]: 0.0351 g/cm
- Colon length compared with the positive control group (in words) ([1]; high-dose treatment group 40 mg/kg intraperitoneal injection vs cyclosporine A 50 mg/kg): even better than the positive control group
- Effect on the length of the colon (in words) [1, 48]: could gradually restore the length of the colon to normal
- Effect on the reduction in the weight of mice (in words) [1, 48]: significant ameliorating effect on the reduction in the weight of mice
- Effect on the unit colon weight (in words) [1, 48]: could significantly improve the unit colon weight
- Effect on the colon length (in words) [2]: can gradually restore the colon length
- Average weight of mice ([2]; Day 1): 21.33 g
- Average weight of mice ([2]; Day 2): 20.97 g
- Average weight of mice ([2]; Day 3): 20.80 g
- Average weight of mice ([2]; Day 4): 20.85 g
- Average weight of mice ([2]; Day 5): 20.53 g
- Average weight of mice ([2]; Day 6): 20.13 g
- Average weight of mice ([2]; Day 7): 19.82 g
- Average colon length of mice ([2]; day 7): 6.2 cm
